Source: US12138277B2, “Oligosaccharides for use in the treatment of Parkinson's disease” (UNIVERSITA' DEGLI STUDI DI MILANO, priority 2018, dated 2024)

Key:
[1] = Crossing of the blood-brain barrier: radioactivity in brain areas after administration of tritiated oligosaccharide; assay type: in vivo, Wild-type mice (C57BL/6); details: intraperitoneal, subcutaneous or intravenous administration; 10 μg tritiated oligosaccharide; 1 hour and 22 hours after administration
Procedure: Wild-type mice (C57BL/6) of about 3 months were treated with β-[6-^3H]Gal-(1-3)-β-GalNAc-(1-4)-[α-Neu5Ac-(2-3)]-β-Gal-(1-4)-Glc.
Administration was performed intraperitoneally, subcutaneously or intravenously (Orlando P. et al 1979, Pharmacological Research Communications 11:759-773). For the intravenous route, the injection was performed in the central vein of the tail. The treatment was carried out with 10 μg of tritiated oligosaccharide (10 μCi) dissolved in 0.1 ml of saline. For each experimental group 5 animals were used. 1 hour and 22 hours after administration, the animals were sacrificed by cardiac perfusion (10 min), in order to remove the blood, especially in the central nervous system. The brain was removed and the different areas (cortex, hippocampus, substantia nigra, cerebellum, trunk) were identified and separated. Tissue samples were lyophilized, homogenized and the relative associated radioactivity was detected at the β-counter (Orlando et al 1979, Pharmacological Research Communication 11:759-773).

Neuroblastoma cells = experiment: Excitotoxicity protection: DCB-induced death of neuroblastoma cells; assay type: cell-based
Procedure: In Parkinson's disease, and more generally in the degenerative diseases of the central nervous system, there is a strong activation of the immune system, oxidative stress and excitotoxicity. Neuroblastoma cells were then treated with DCB (3′,4′-Dichlorobenzamyl hydrochloride) to induce an accumulation of intracellular calcium, an experimental strategy which mimics glutamate-induced excitotoxicity.

[2] = test system: Neuroblastoma cells of murine origin; experiment: Proteomic analysis by mass spectroscopy of treated neuroblastoma cells; assay type: cell-based; details: after 24 h of treatment
Procedure: Neuroblastoma cells of murine origin were treated with β-Gal-(1-3)-β-GalNAc-(1-4)-[α-Neu5Ac-(2-3)]-β-Gal-(1-4)-Glc to induce neuronal differentiation (Chiricozzi et al. 2017 Journal of Neurochemistry 143:645-659). After 24 h of treatment, the cells were collected for protein analysis. […] These proteins are involved in cellular signaling of i) excitotoxicity neuroprotection; ii) inhibition of oxidative stress; iii) inhibition of microglia hyperactivation and downregulation of proinflammatory molecules.

Row | Molecule | oligosaccharide reaching the central nervous system / crossing the blood-brain barrier (associated radioactivity in brain areas) [1] | toxicity of the oligosaccharide to cells (Neuroblastoma cells; neuroblastoma cells) | protection of cells from DCB-induced death (Neuroblastoma cells; neuroblastoma cells treated with DCB (3′,4′-Dichlorobenzamyl hydrochloride)) | number of proteins whose expression is induced [2]
1 | β-[6-^3H]Gal-(1-3)-β-GalNAc-(1-4)-[α-Neu5Ac-(2-3)]-β-Gal-(1-4)-Glc | a fair amount of the oligosaccharide is able to reach the central nervous system, including the substantia nigra, within a few hours | – | – | –
2 | CC(=O)N[C@H]1[C@H](O[C@@H]2[C@H](O[C@]3(C(=O)O)C[C@H](O)[C@@H](NC(C)=O)[C@H]([C@H](O)[C@H](O)CO)O3)[C@@H](O)[C@H](O[C@H]3[C@H](O)[C@@H](O)C(O)O[C@@H]3CO)O[C@@H]2CO)O[C@H](CO)[C@H](O)[C@@H]1O[C@@H]1O[C@H](CO)[C@H](O)[C@H](O)[C@H]1O (stereo partly drawn) [β-Gal-(1-3)-β-GalNAc-(1-4)-[α-Neu5Ac-(2-3)]-β-Gal-(1-4)-Glc] | – | without being toxic to cells | able to protect cells from DCB-induced death | 320
